# Data as given in patent publication US4910225A, “Locally administrable therapeutic composition for inflammatory disease” (Senju Pharmaceutical Co., Ltd., priority 1988, dated 1990).
# Experiments:
# [1] = tested on: experimental ophthalmitis induced by bovine serum albumin in white rabbits (ophthalmitis I); assay: Anti-inflammatory effect in ophthalmitis I (bovine serum albumin injected into the vitreous), gross severity scores; type: in vivo; settings: for Anterior chamber opacity, degree of inhibition relative to physiological saline group / Balbar conjunctival injection, degree of inhibition relative to physiological saline group / Corneal opacity, degree of inhibition relative to physiological saline group / Discharge, degree of inhibition relative to physiological saline group / External + Internal Grand Total Score, degree of inhibition relative to physiological saline group / External Segment Total Score, degree of inhibition relative to physiological saline group / Internal Segment Total Score, degree of inhibition relative to physiological saline group / Iridic injection, degree of inhibition relative to physiological saline group / Morphological change of iris, degree of inhibition relative to physiological saline group / Palpebral conjunctival edema, degree of inhibition relative to physiological saline group / Palpebral conjunctival injection, degree of inhibition relative to physiological saline group / Anterior chamber opacity score (Internal Segment) / Balbar conjunctival injection score (External Segment) / Corneal opacity score (External Segment) / Discharge score (External Segment) / External + Internal Grand Total Score / External Segment Total Score / Internal Segment Total Score / Iridic injection score (Internal Segment) / Morphological change of iris score (Internal Segment) / Palpebral conjunctival edema score (External Segment) / Palpebral conjunctival injection score (External Segment): ophthalmitis I; for Anterior chamber opacity score (Internal Segment) / Balbar conjunctival injection score (External Segment) / Corneal opacity score (External Segment) / Discharge score (External Segment) / External + Internal Grand Total Score / External Segment Total Score / Internal Segment Total Score / Iridic injection score (Internal Segment) / Morphological change of iris score (Internal Segment) / Palpebral conjunctival edema score (External Segment) / Palpebral conjunctival injection score (External Segment): peak inflammatory period of 3 days, mean ± SE
# Description: (§1) Seventeen male white rabbits weighing about 2 kg were used. They were fed with 80 g of Labo RG-RO (Nippon Agricultural Co., Ltd.) daily and had free access to tap water.
# (§2) After 28 days when ophthalmitis I had nearly recovered, 2.5% BSA solution was administered in a dose of 25 mg/ml/kg into the auricular vein to cause ophthalmitis (ophthalmitis II). The severity of ophthalmitis was rated according to the rating scale^(1) of Yamauchi et al., based on the Draize method in which an increased weight given to the internal segment of the eye. Observation was made with a frequency of once in one or two days during the peak period of inflammation and once in three or four days before and after the peak period for ophthalmitis I and 3, 6, 12 and 24 hours after intravenous injection of BSA for ophthalmitis II.
# ^(1) Hideyasu Yamauchi, Makoto Ingu, Tadashi Iso and Kozo Uda: Anti-inflammatory effect of fluorometholone ophthalmic solution in experimental uveitis in rabbits, Folia Ophthalmologica Japonica, 24: 969-79 (1973).
# (§3) Gross observation was made on the day after injection of BSA into the vitreous body and with the animals arranged in the decreasing order of severity of ocular inflammation, grouping was carried out in such a manner that the intensity distribution would be uniform over the groups. Thus, a physiological saline group of 7 animals, a 0.1% Compound [I] instillation group of 4 animals and a 0.5% Compound [I] instillation group of 5 animals were provided. After this grouping procedure, the test drugs and saline were respectively instilled into both eyes of the rabbits, 50 μl per dose, 4 times a day. For induction of ophthalmitis II, each drug was instilled into both eyes, 50 μl per dose, immediately after injection of BSA into the auricular vein and at 1-hour intervals thereafter, for a total of 14 times.
# [2] = tested on: experimental ophthalmitis induced by bovine serum albumin in white rabbits (ophthalmitis II); assay: Ophthalmitis II: protein, white blood cell count and prostaglandins in anterior chamber aqueous humor; type: in vivo; settings: for Prostaglandin in anterior chamber aqueous humor: less than the assay limit; for White Blood Cell count in anterior chamber aqueous humor: mean ± SE
# Description: as §1, §2, §3
# [3] = tested on: carrageenin edema in rats; assay: Carrageenin edema of the conjunctiva in rats; type: in vivo; settings: 4 hours after carrageenin; for Weight of Edema: mean ± SE for 10 eyes
# Description: 1. Sodium 3-(4-bromobenzoyl)-2-aminophenyl-acetate (hereinafter referred to as Compound [I])
# 2. Sodium 3-(4-chlorobenzoyl)-2-aminophenyl-acetate (hereinafter referred to as Compound [II])
# 3. Sodium 3-benzoyl-2-aminophenylacetate (hereinafter referred to as Compound [III])
# Using female Wister rates weighing 100 g in groups of 5 animals or 10 eyes, 0.05 ml of 1% carrageenin (dissolved in physiological saline at 50° C.) as a phlogogen was injected beneath the conjuctiva of both eyes to induce edema. Physiological saline, as a control, and test drugs were respectively instilled into both eyes 40 and 20 minutes before and immediately after the injection of carrageenin, in the amount of 2.5 μl per dose. Four hours after the phlogogen treatment, each animal was sacrificed by cervical dislocation and in accordance with the method of Maistrello et al.^(2), the scalp was peeled off toward the eyelid and the edematous portion together with the skin was removed along the lid margin and weighed.
# ^(2) Maistrello et al.: Quantitative Effect of Topically Applied Anti-inflammatory Agents on External Ocular Inflammation in Rats: Journal of Pharmaceutical Science, volume 62, pp. 1455-60(1973).
# [4] = tested on: atropine-resistant miosis; assay: Atropine-resistant miosis after paracentesis; type: in vivo, albino rabbits; settings: for Miosis: 10 min after paracentesis
# Description: (§4) The solutions of the following formulas were used.
# (§5) Totally 28 male albino rabbits (4 rabbits×7 groups) with a body weight of about 2 kg werr used. They had been confirmed, before the experiment, to have mydriatic response to 1% atropine for at least 4 hours.
# (§6) 50 μl each of 1% atropine solution was instilled into both eyes of the animals one hour before the 1st paracenthesis, in which approx. 0.2 ml/eye of aqueous humor (primary aqueous humor) was collected. Topical application of 50 μl each of the test drug solutions was conducted 30 min before the paracenthesis. Pupil diameter of each eye was measured with a slide caliper immediately before and 10 min after the paracenthesis. The 2nd paracenthesis was conducted 90 min after the 1st one, in which approx. 0.2 ml/eye of aqueous humor (secondary aqueous humor) was collected.
# [5] = tested on: protein increase after paracentesis; assay: Protein increase in aqueous humor after paracentesis; type: in vivo, albino rabbits
# Description: as §4, §5, §6
# [6] = Stability with polyvinyl pyrrolidone and sodium sulfite (Experimental Example 6); type: physicochemical; settings: solution in which polyvinyl pyrrolidone and sodium sulfite coexist
# [7] = pH and osmolarity of ophthalmic solutions; type: physicochemical
smiles,measurement,setting,value
"Nc1c(CC(=O)[O-])cccc1C(=O)c1ccc(Br)cc1.O.[Na+] [Compound [I], Sodium 3-(4-bromobenzoyl)-2-aminophenylacetate monohydrate]",Inhibition of ophthalmitis I for the external and the internal segment of the eye,[1]; 0.1% and 0.5%,potent and dose-dependent inhibition for both the external and the internal segment of the eye
same,"Anterior chamber opacity, degree of inhibition relative to physiological saline group",[1]; 0.1%,-20.0%
same,"Balbar conjunctival injection, degree of inhibition relative to physiological saline group",[1]; 0.1%,30.8%
same,"Corneal opacity, degree of inhibition relative to physiological saline group",[1]; 0.1%,60.0%
same,"Discharge, degree of inhibition relative to physiological saline group",[1]; 0.1%,100%
same,"External + Internal Grand Total Score, degree of inhibition relative to physiological saline group",[1]; 0.1%,41.8%
same,"External Segment Total Score, degree of inhibition relative to physiological saline group",[1]; 0.1%,50.4%
same,"Internal Segment Total Score, degree of inhibition relative to physiological saline group",[1]; 0.1%,32.6%
same,"Iridic injection, degree of inhibition relative to physiological saline group",[1]; 0.1%,57.4%
same,"Morphological change of iris, degree of inhibition relative to physiological saline group",[1]; 0.1%,34.1%
same,"Palpebral conjunctival edema, degree of inhibition relative to physiological saline group",[1]; 0.1%,85.7%
same,"Palpebral conjunctival injection, degree of inhibition relative to physiological saline group",[1]; 0.1%,65.8%
same,Anterior chamber opacity score (Internal Segment),[1]; 0.1%,3.6 ± 0.8
same,Balbar conjunctival injection score (External Segment),[1]; 0.1%,4.5 ± 0.6
same,Corneal opacity score (External Segment),[1]; 0.1%,1.0 ± 0.4
same,Discharge score (External Segment),[1]; 0.1%,0
same,External + Internal Grand Total Score,[1]; 0.1%,15.9 ± 1.8
same,External Segment Total Score,[1]; 0.1%,6.8 ± 1.0
same,Internal Segment Total Score,[1]; 0.1%,9.1 ± 1.0
same,Iridic injection score (Internal Segment),[1]; 0.1%,2.6 ± 0.2
same,Morphological change of iris score (Internal Segment),[1]; 0.1%,2.9 ± 0.4
same,Palpebral conjunctival edema score (External Segment),[1]; 0.1%,0.1 ± 0.1
same,Palpebral conjunctival injection score (External Segment),[1]; 0.1%,1.3 ± 0.2
same,"Anterior chamber opacity, degree of inhibition relative to physiological saline group",[1]; 0.5%,33.3%
same,"Balbar conjunctival injection, degree of inhibition relative to physiological saline group",[1]; 0.5%,74.5%
same,"Corneal opacity, degree of inhibition relative to physiological saline group",[1]; 0.5%,48.0%
same,"Discharge, degree of inhibition relative to physiological saline group",[1]; 0.5%,100%
same,"External + Internal Grand Total Score, degree of inhibition relative to physiological saline group",[1]; 0.5%,63.0%
same,"External Segment Total Score, degree of inhibition relative to physiological saline group",[1]; 0.5%,74.5%
same,"Internal Segment Total Score, degree of inhibition relative to physiological saline group",[1]; 0.5%,51.1%
same,"Iridic injection, degree of inhibition relative to physiological saline group",[1]; 0.5%,70.5%
same,"Morphological change of iris, degree of inhibition relative to physiological saline group",[1]; 0.5%,34.1%
same,"Palpebral conjunctival edema, degree of inhibition relative to physiological saline group",[1]; 0.5%,100%
same,"Palpebral conjunctival injection, degree of inhibition relative to physiological saline group",[1]; 0.5%,36.8%
same,Anterior chamber opacity score (Internal Segment),[1]; 0.5%,2.0 ± 0.4
same,Balbar conjunctival injection score (External Segment),[1]; 0.5%,1.6 ± 0.2
same,Corneal opacity score (External Segment),[1]; 0.5%,0.4 ± 0.2
same,Discharge score (External Segment),[1]; 0.5%,0
same,External + Internal Grand Total Score,[1]; 0.5%,10.1 ± 1.0
same,External Segment Total Score,[1]; 0.5%,3.5 ± 0.4
same,Internal Segment Total Score,[1]; 0.5%,6.6 ± 0.8
same,Iridic injection score (Internal Segment),[1]; 0.5%,1.8 ± 0.2
same,Morphological change of iris score (Internal Segment),[1]; 0.5%,2.9 ± 0.4
same,Palpebral conjunctival edema score (External Segment),[1]; 0.5%,0
same,Palpebral conjunctival injection score (External Segment),[1]; 0.5%,1.5 ± 0.3
same,Prostaglandin in anterior chamber aqueous humor,[2]; 0.1%,< 0.4 ng/mL
same,White Blood Cell count in anterior chamber aqueous humor,[2]; 0.1%,1489 ± 499 Cells/mm^3
same,Prostaglandin in anterior chamber aqueous humor,[2]; 0.5%,< 0.4 ng/mL
same,White Blood Cell count in anterior chamber aqueous humor,[2]; 0.5%,1673 ± 277 Cells/mm^3
same,Degree of inhibition (carrageenin edema),[3]; 1.0%,16.9%
same,Weight of Edema,[3]; 1.0%,43.93 ± 4.138 mg
same,Degree of inhibition (carrageenin edema),[3]; 2.5%,31.3%
same,Weight of Edema,[3]; 2.5%,36.323 ± 3.308 mg
same,Inhibitory activity on miosis after paracentesis,"[4]; Compound [I] 0.0001-0.1%, indomethacin as high as 0.5%",dose-related inhibitory activity on miosis after paracentesis
same,Inhibition (miosis),[4]; content 0.0001%,9.2 ± 8.33%
same,Miosis,[4]; content 0.0001%,21.5 ± 1.97%
same,Inhibition (miosis),[4]; content 0.001%,19.7 ± 6.08%
same,Miosis,[4]; content 0.001%,19.0 ± 1.44%
same,Inhibition (miosis),[4]; content 0.01%,35.2 ± 6.75%
same,Miosis,[4]; content 0.01%,15.4 ± 1.60%
same,Inhibition (miosis),[4]; content 0.1%,24.9 ± 16.4%
same,Miosis,[4]; content 0.1%,17.4 ± 3.80%
same,Effect on protein increase compared with 0.5% indomethacin,[5]; 0.01% of Compound [I],equivalent to that of 0.5% indomethacin
same,Inhibition (protein increase),[5]; content 0.0001%,6.3%
same,Inhibition (protein increase),[5]; content 0.001%,26.3%
same,Inhibition (protein increase),[5]; content 0.01%,62.9%
same,Inhibition (protein increase),[5]; content 0.1%,87.8%
same,Anti-inflammatory effect compared with indomethacin,[5]; miosis and protein increase after paracentesis,stronger anti-inflammatory effect than indomethacin
same,Inhibitory activity on protein increase after paracentesis,"[5]; rabbit, in vivo",strong and dose-related inhibitory activity on protein increase after paracenthesis
same,Decomposition of Compound [I],[6],the decomposition of Compound [I] was not observed either
same,Osmolarity of ophthalmic solution,[7]; 0.1% ophthalmic solution,325 mOsm/kg·H2 O
same,pH value of ophthalmic solutions,[7]; 0.5% and 0.1% ophthalmic solutions,8.11
same,Osmolarity of ophthalmic solution,[7]; 0.5% ophthalmic solution,310 mOsm/kg·H2 O
same,Osmotic pressure,"[7]; Experimental Example 3 solutions 0.1-0.0001%, pH 8.0",310 mOsm/Kg.H2 O
